Assay results as given in the NIST ThermoML archive (doi:10.1021/je900974u).

Assays:
[1] = molar heat capacity at constant pressure; conditions: 101.33 kPa, Liquid, Vacuum adiabatic calorimetry
[2] = Molar enthalpy of transition or fusion; conditions: Crystal; Adiabatic calorimetry
[3] = Crystal

CCCCn1cc[n+](C)c1.N#CN=C=[N-] [1-butyl-3-methylimidazolium dicyanamide]
[1]
Conditions	molar heat capacity at constant pressure [J/K/mol]
235.8 K	355.9
237.81 K	356.5
239.87 K	356.9
241.93 K	357.5
243.99 K	357.9
246.05 K	358.6
248.11 K	359.2
249.31 K	359.4
250.17 K	359.8
251.33 K	360.2
252.23 K	360.4
253.39 K	360.8
254.29 K	360.8
255.46 K	361.2
256.35 K	361.4
257.53 K	362
258.41 K	362
259.59 K	362.7
260.48 K	362.7
261.66 K	363.3
262.54 K	363.5
263.72 K	363.9
264.6 K	364.1
265.79 K	364.7
266.66 K	364.7
267.86 K	365.3
268.72 K	365.3
269.92 K	365.9
270.79 K	366.1
271.99 K	366.5
272.85 K	366.8
274.05 K	367.2
274.91 K	367.4
276.12 K	368
278.19 K	368.6
280.25 K	369.4
282.32 K	370
284.39 K	370.9
286.45 K	371.5
288.52 K	372.3
290.59 K	372.9
292.65 K	373.7
294.72 K	374.5
296.78 K	375.4
298.85 K	376.2
300.92 K	376.8
302.98 K	377.6
305.05 K	378.4
307.12 K	379.1
309.18 K	379.9
311.25 K	380.7
313.32 K	381.5
315.39 K	382.3
317.46 K	382.9
319.53 K	383.8
321.6 K	384.8
323.67 K	385.6
325.73 K	386.4
327.8 K	387
329.87 K	388.1
331.94 K	388.9
334.01 K	389.7
336.08 K	390.5
338.15 K	391.1
340.22 K	392
342.29 K	392.8
344.36 K	393.6
346.43 K	394.4
348.5 K	395.5
350.57 K	396.3
352.65 K	397.1
354.72 K	397.9
356.79 K	398.9
358.86 K	399.6
360.93 K	400.6
363 K	401.4
365.07 K	402.2
367.14 K	403.2

Conditions	Molar enthalpy of transition or fusion [kcal/mol]	Triple point temperature [K]
[2]	4.254	–
[3]	–	270.83

CCCCn1cc[n+](C)c1.F[B-](F)(F)F [1-butyl-3-methylimidazolium tetrafluoroborate]
[1]
Conditions	molar heat capacity at constant pressure [J/K/mol]
189.66 K	332
191.85 K	332.1
194.05 K	332.1
196.25 K	332.7
198.46 K	332.8
200.67 K	333.2
202.89 K	333.7
205.12 K	334
207.35 K	334.5
209.58 K	335
211.82 K	335.5
214.06 K	335.9
216.3 K	336.8
218.55 K	337.2
220.8 K	337.8
223.05 K	338.8
225.31 K	339.2
227.56 K	339.9
229.82 K	340.4
232.09 K	340.9
236.62 K	342.8
238.89 K	343.3
241.18 K	344.4
243.46 K	345.4
245.73 K	345.8
248.01 K	346.6
250.29 K	347.5
252.57 K	348.5
254.85 K	349
257.13 K	350.2
259.41 K	351
261.7 K	351.4
263.98 K	352.6
266.27 K	353.5
268.56 K	354.6
270.84 K	355.7
273.13 K	356.4
275.42 K	357.4
277.72 K	358.3
280.02 K	359.2
282.31 K	360.2
284.6 K	361.6
286.89 K	362.1
289.17 K	363.3
291.46 K	364.2
293.74 K	365.4
296.02 K	366.3
298.3 K	367
300.57 K	368.2
302.84 K	368.7
305.11 K	370
307.38 K	371.1
309.64 K	372.6
311.9 K	373.5
314.16 K	374.2
316.43 K	375.5
318.69 K	376.9
320.95 K	377.9
323.2 K	378.9
325.45 K	379.6
327.7 K	381.1
329.95 K	381.9
332.2 K	382.6
334.45 K	384.1
336.69 K	384.9
338.94 K	386
341.18 K	387.3
343.42 K	388.6
345.66 K	389.8
347.9 K	390.7
350.14 K	391.8
352.38 K	392.4
354.62 K	393.9
356.85 K	394.2
359.08 K	395.7
361.31 K	396.6
363.54 K	397.9
365.76 K	399
367.98 K	400.1
